According to patent US20200046648A1, “POLYMERIC NANOPARTICLES COMPRISING SALINOMYCIN” (priority 2018, published 2020):
“Also recorded” adds a separate entry of the source.

Key:
[1] = tested on: CD44+/CD24low cells; assay: Flow cytometric identification of cancer stem cells from a TNBC patient; format: cell-based; conditions: TNBC patient tumor derived spheroid cultures; 72 hours; FACS
Experimental: Flow cytometric identification of cancer stem cells (CSCs) by CD24-PE & CD44-FITC antibody staining in triple negative breast cancer (TNBC) patient tumor derived cells cultured as spheroid cultures and then treated with the indicated drugs for72h. Following 72 hours of treatment of the mammospheres, cells were dissociated with Acutase treatment. Following washing, cells were stained with CD24-PE & CD44-FITC antibody, washed and analyzed by FACS. The subpopulation of CD44+/CD24-low cells were gated and quantified.

[2] = Preliminary toxicity study, post mortem observations; format: in vivo, CD2 male mice; conditions: day 7
Experimental: (§1) A study was conducted in wild-type CD2 male mice to evaluate and compare the effects of salinomycin (SAL) at three different concentrations and compared to a formulation of SAL in biodegradable tetra-block polymeric nanoparticles.
(§2) MICE 20-25 g male CD2 mice between the ages 6 to 8 weeks from Taconic were used. The animals were acclimatized for five days before initiating the study.
(§3) Animals were injected intravenously either with 5.0 mg/kg, 8.5 mg/kg, or 12.5 mg/kg of SAL or SAL-NPs once, according to Table 1 below. Control animals were treated with PBS.
(§4) Tolerability of the drug by animals was measured via clinical, weight and behavioral changes. The compounds were administered once on day 1. Seven days following administration, all animals were euthanized and blood was collected for a complete blood chemistry and hematology analysis (see Table 2 and 3 below). Post mortem was conducted to examine all of the animals. Different organs (brain, heart, lung, liver, spleen, stomach, intestine, kidney, and skin) were also isolated for histo-pathological evaluation by H & E staining.
On day 7 of the study, a post mortem inspection was conducted on each and every animal. […] There was slight enlargement observed on the fascia around the testis.

[3] = Preliminary toxicity study, histopathology by H & E staining; format: in vivo, CD2 male mice
Experimental: as §1, §2, §3, §4
All the animals did well in the study, except the Salinomycin 12.5 mg/kg group. The histopathological studies were conducted on brain, heart, lung, liver, spleen, stomach, intestine, kidney, muscles, and skin tissues by H & E staining. […]

[4] = Comparative toxicity in wild-type mice; format: in vivo
Experimental: The effect of nanoparticles in mitigating the toxicity of salinomycin was examined in wild-type mice. Different doses of salinomycin alone (5, 7.5, 10, 12.5 and 15 mg/kg) or salinomycin-nanoparticles (SAL-NP) (5, 7.5, 10, 12.5 and 15 mg/kg) were injected into wild-type mice. Three mice were used in each group of salinomycin alone and salinomycin-NP groups, body weights, food and water uptake were measured every day for 22 days.

SMILES | effect on CD44+/CD24low cells [1] | Post-mortem findings ([2]; 5 mg/kg i.v. once) | Post-mortem findings ([2]; 8.5 mg/kg i.v. once) | Post-mortem findings ([2]; 12.5 mg/kg i.v. once) | organ toxicity (conclusion) ([3]; 5, 8.5, 12.5 mg/kg i.v. once, day 7) | microscopical examination of all the tissues ([3]; mouse, in vivo) | survival ([4]; 10 mg/kg) | survival ([4]; 12.5 mg/kg) | survival (day of the study) ([4]; 15 mg/kg)
CC(=O)O[C@H]1C(=O)[C@@]2(C)[C@H]([C@H](OC(=O)c3ccccc3)[C@]3(O)C[C@H](OC(=O)[C@H](O)[C@@H](NC(=O)c4ccccc4)c4ccccc4)C(C)=C1C3(C)C)[C@]1(OC(C)=O)CO[C@@H]1C[C@@H]2O [Paclitaxel] | not much effect |  |  |  |  |  |  |  | 
CC[C@@H](C(=O)[C@@H](C)[C@@H](O)[C@H](C)[C@@H]1O[C@@H]([C@@H](CC)C(=O)O)CC[C@@H]1C)[C@H]1O[C@]2(C=C[C@@H](O)[C@]3(CC[C@@](C)([C@H]4CC[C@](O)(CC)[C@H](C)O4)O3)O2)[C@H](C)C[C@@H]1C [SAL, salinomycin] |  | did not show any observable changes; also recorded: No Changes observed | slightly reddish and slightly enlarged testis; also recorded: testis with redness; also recorded: No Changes observed | reddening of the fascia surrounding testis; also recorded: Epidydimus enalrged | toxicity to the liver, kidney, testis, and epididymis | changes were observed in the kidney, liver, testis and epididymis | five | three | died after day 3
